# Assay results: article PMC8911025, “Design, Synthesis, and Biological Evaluation of New Azulene-Containing Chalcones” (Materials, 2022)
# Assays:
# Format in all cases: cell-based
# [1] = system: Candida parapsilosis ATCC 22019; test: MIC (antifungal), binary serial dilution in 96-well plates; settings: Lodderomyces parapsilosis, ATCC22019; Candida parapsilosis ATCC 22019, 24 h at 37 °C
# Method: (§1) The antimicrobial activity of all compounds was assessed on Gram-positive bacteria (Staphylococcus aureus ATCC 25923), Gram-negative bacteria (Escherichia coli ATCC 25922, Pseudomonas aeruginosa ATCC 27853), and fungi (Candida parapsilosis ATCC 22019) using quantitative binary serial dilution method in 96-well plates. The negative control was represented by wells with culture medium, while positive control was the microbial strain in broth. Briefly, binary serial dilutions of the compounds performed in 100 μL of broth were seeded with microbial inoculum of 10^6 colony forming units (CFU)/mL and incubated for 24 h at 37 °C. […] Due to the fact that the obtained compounds were colored, after the incubation of the 96-well plates, from each well, 10 µL were seeded on agar plates (Plate Count Agar) to determine the inhibitory concentration. The same value of the inhibitory concentration was obtained in repeated experiments.
# (§2) The antibacterial effect of the azulene moiety introduced in the chalcone structure was investigated against Gram-positive (Staphylococcus aureus ATCC 25923) and Gram-negative (Escherichia coli ATCC 25922, Pseudomonas aeruginosa ATCC 27853) bacteria, while the antifungal effect was tested against Candida parapsilosis ATCC 22019. To our knowledge, the antibacterial activity of azulene-containing chalcone compounds has not been reported previously; moreover, this is the first investigation of the biological properties of azulene-containing chalcones in general. The results expressed in terms of minimum inhibitory concentration (MIC) were determined by in vitro screening of the antimicrobial properties using the broth microdilution method and are summarized in Table 5.
# We further tested the azulene-containing chalcone compounds for antifungal activity against Candida parapsilosis ATCC 22019.
# Pseudomonas aeruginosa = test: Antibiofilm activity (crystal violet, A490); settings: biofilm, read-out: MBEC
# Method: (§3) The effect of the chalcones on the biofilm formation was evaluated after the determination of the MICs. Briefly, the plates were emptied, washed to remove the nonadherent cells, fixed with methanol, and stained with crystal violet. The antibiofilm activity was determined after adding 33% acetic acid solution by measuring the absorbance at 490 nm, and the results are listed in Table 6.
# (§4) The azulene-chalcone derivatives were tested for their ability to affect biofilm formation since 80% of the world’s microbial biomass is found in the biofilm state. The most efficient compound was again chalcone 6 with MBEC of 0.156–0.625 mg/mL (Table 6).
# Candida parapsilosis = test: Antibiofilm activity (crystal violet, A490); settings: Lodderomyces parapsilosis, biofilm, read-out: MBEC
# Method: as §3, §4
# Staphylococcus aureus = test: Antibiofilm activity (crystal violet, A490); settings: biofilm, read-out: MBEC
# Method: as §3, §4
# Escherichia coli = test: Antibiofilm activity (crystal violet, A490); settings: biofilm, read-out: MBEC
# Method: as §3, §4
# HEp-2 cells [2] = test: Cell viability assay (CellTiter Glo); settings: 25-200 μg/mL
# Method: (§5) To assess the toxicity of the azulene-containing chalcones, the adherent cell line HEp-2 (American Cell Type Collection [ATCC] CCL-23^TM) was used.
# (§6) In order to estimate the cytotoxicity of the compounds, HEp-2 cells (American Cell Type Collection (ATCC) CCL-23) were exposed to the azulene-containing chalcones at concentrations of 200, 100, 50, and 25 μg/mL and evaluated using CellTiter Glo kit (Promega, Madison, WI, USA) assay. The results presented in Figure 3 are expressed as viability percentages versus control.
# [3] = Cell viability assay (CellTiter Glo); settings: human; HEp-2 cells, 48 h, CellTiter Glo; read-out: IC50 (50% cytotoxic concentration)
# Method: as §5, §6
# biofilm formation = test: Antibiofilm activity, summary over the tested strains; settings: range over the tested strains (Table 6)
# Method: as §3, §4
# [4] = system: Escherichia coli ATCC 25922; test: MIC, binary serial dilution in 96-well plates; settings: ATCC25922; Escherichia coli ATCC 25922, 24 h at 37 °C
# Method: as §1, §2
# [5] = system: Pseudomonas aeruginosa ATCC 27853; test: MIC, binary serial dilution in 96-well plates; settings: ATCC27853; Pseudomonas aeruginosa ATCC 27853, 24 h at 37 °C
# Method: as §1, §2
# [6] = system: Staphylococcus aureus ATCC 25923; test: MIC, binary serial dilution in 96-well plates; settings: for MIC: ATCC25923, Staphylococcus aureus ATCC 25923, 24 h at 37 °C; for Aexp: Aexp = 0.1 + log (k/MIC), k = 1.250, compounds synthesized herein
# Method: as §1, §2
# caspase 9 = test: Gene expression quantification (qPCR); settings: HEp-2, 100 µg/mL, 24 h
# Method: (§7) The mechanism of azulene-containing chalcone toxicity was assessed by gene expression evaluation. HEp-2 cells were seeded in 6-well plates at a concentration of 3 × 10^5 cells/wells in DMEM:F12 supplemented with 10% FBS. The cells were treated with azulene-containing chalcone at a concentration of 100 µg/mL. After 24 h, the cells were harvested and centrifuged, and the pellet was subjected to total RNA extraction using Trizol reagent (Sigma, St. Louis, MO, USA). The cDNA was produced using 2 µg total RNA and High Capacity Reverse Transcription Kit (Thermo Fisher Scientific, Chelmsford, MA, USA). Fifty nanograms of cDNA was subjected to PCR reaction using Maxima SYBR Green/ROX qPCR Master Mix (Thermo Fisher Scientific, Chelmsford, MA, USA) and Origene primer pairs: caspase 3 (CAT#: HP207674) caspase 7 (CAT#: HP233752), caspase 8 (CAT#: HP234494), caspase 9 (CAT#: HP205155), caspase 10 (CAT#: HP228052). For NOX-4 and NOS2, the following primers were used: NOX 4 forward 5′-[…]-3 and reverse 5′-[…]-3′ and NOS2 forward 5′-[…]-3′ and reverse 5′-[…]-3′. Amplification was completed using StepOne Real-Time PCR System (Thermo Fisher Scientific, Chelmsford, MA, USA). The relative changes in the levels of mRNA expression were quantified by using the 2^−ΔΔCT method.
# (§8) Production of procaspase 8 mRNA was inhibited by 7, 9, and 10, with an important role in extrinsic apoptosis induction remaining for caspase 10. Cellular stress induces intrinsic apoptosis by caspase 9 activation that stimulates the caspase cascade, culminating in activation of executioner caspases 3 and 7 [42]. The mRNA expression of caspase 9 was activated following the treatment with 100 µg/mL of compounds 1–8 but inhibited by 9 and 10.
# caspase 8 = test: Gene expression quantification (qPCR); settings: HEp-2, 100 µg/mL, 24 h
# Method: as §7, §8
# HEp-2 cells [7] = test: Cell cycle analysis (propidium iodide, flow cytometry)
# Method: For cell cycle analysis, a suspension of 7.5 × 10^4 HEp-2 cells was seeded for 24 h in a 1 cm^2 well in DMEM:F12 containing 10% fetal bovine serum. After recovery, the cells were treated with 50 µg/mL or 100 µg/mL azulene-containing chalcone, and 24 h later, the cells were harvested, fixed in cold ethanol overnight, and stained with RNase A/propidium iodide at a concentration of 1 mg/mL to 100 µg/mL. The events were recorded using the Beckman Coulter flow cytometer and analyzed using FlowJo 7.2.5 software.
# The cytotoxicity data were also confirmed by cell cycle analysis. Among the tested compounds, chalcone 10 induced an increase in the G2/M phase starting from a concentration of 50 µg/mL (Supplementary Material Figure S2), the effect increasing slightly with the concentration of the tested compound. The increase in the G2/M phase was also observed in the case of compound 9, but at a higher concentration (100 µg/mL), but this effect was lower (Figure 4).
# caspase 3 = test: Gene expression quantification (qPCR); settings: HEp-2, 100 µg/mL, 24 h
# Method: as §7
# (§9) We observed that the expression of both executioner caspases, caspase 3 (Casp 3), and caspase 7 (Casp 7), was activated by azulene (Figure 5, right). The production of procaspase 3 and 7 mRNA in the case of compounds 9 and 10 was quite reduced, probably correlated with the decreased number of cells.
# caspase 7 = test: Gene expression quantification (qPCR); settings: HEp-2, 100 µg/mL, 24 h
# Method: as §7, §9
# NOS2 = test: Gene expression quantification (qPCR); settings: HEp-2, 100 µg/mL, 24 h
# Method: as §7
# (§10) One of our approaches consisted of the analysis of NOS2 and NOX4 gene expression (Figure 6). […]
# NOX4 = test: Gene expression quantification (qPCR); settings: HEp-2, 100 µg/mL, 24 h
# Method: as §7, §10
MIC [1] [µg/mL],MIC [4] [µg/mL],MIC [5] [µg/mL],MIC [6] [µg/mL],mRNA expression of caspase 9 (caspase 9),procaspase 8 mRNA production (caspase 8),procaspase 3 mRNA expression (caspase 3),procaspase 7 mRNA expression (caspase 7),Structure (SMILES),minimal effective concentration (Pseudomonas aeruginosa) [µg/mL],minimal effective concentration (Candida parapsilosis) [µg/mL],minimal effective concentration (Staphylococcus aureus) [µg/mL],minimal effective concentration (Escherichia coli) [µg/mL],cytotoxicity (HEp-2 cells [2]),IC50 at 48 h [3] [µg/mL],MBEC (biofilm formation) [mg/mL],Aexp [6],"effect on G2/M phase (HEp-2 cells [7]; HEp-2, starting from 50 µg/mL)",NOS2 expression (NOS2),"effect on G2/M phase (HEp-2 cells [7]; HEp-2, 100 µg/mL)",NOX4 activation (expression) (NOX4)
312,625,625,1250,inhibited,inhibited,quite reduced,quite reduced,"Cc1cc(C(=O)/C=C/c2ccc3cccccc2-3)c2cccccc1-2 [Compound 10, (E)-3-(Azulen-1-yl)-1-(3-methylazulen-1-yl)prop-2-en-1-one]",625,312,1250,625,most toxic,4.95,,0.100,increase,,,
312,625,625,1250,inhibited,inhibited,quite reduced,quite reduced,"Cc1cc(/C=C/C(=O)c2ccc3cccccc2-3)c2cccccc1-2 [Compound 9, (E)-1-(Azulen-1-yl)-3-(3-methylazulen-1-yl)prop-2-en-1-one]",625,312,625,625,,52.5,,0.100,,reduced,increase,
312,625,625,1250,,,,,"Nc1ccc(C(=O)/C=C/c2ccc3cccccc2-3)cc1 [Compound 3, (E)-1-(4-Aminophenyl)-3-(azulen-1-yl)prop-2-en-1-one]",1250,625,2500,625,,114,,0.100,,,,
312,625,625,1250,,,,,"O=C(/C=C/c1ccc2cccccc1-2)c1ccc2ccccc2c1 [Compound 5, (E)-3-(Azulen-1-yl)-1-(naphthalen-2-yl)prop-2-en-1-one]",1250,625,2500,625,,102,,0.100,,,,
312,625,625,1250,,,,,"O=C(/C=C/c1ccc2cccccc1-2)c1cccc2ccccc12 [Compound 4, (E)-3-(Azulen-1-yl)-1-(naphthalen-1-yl)prop-2-en-1-one]",625,625,1250,625,,61.8,,0.100,,,,
312,625,625,625,,inhibited,,,"O=C(/C=C/c1cc(Cl)c2cccccc1-2)c1ccc2cccccc1-2 [Compound 7, (E)-1-(Azulen-1-yl)-3-(3-chloroazulen-1-yl)prop-2-en-1-one]",625,312,625,1250,,42.9,,0.401,,,,minimal

Structure (SMILES),MIC [1] [µg/mL],MIC [4] [µg/mL],MIC [5] [µg/mL],MIC [6] [µg/mL],mRNA expression of caspase 9 (caspase 9),procaspase 8 mRNA production (caspase 8),procaspase 3 mRNA expression (caspase 3),procaspase 7 mRNA expression (caspase 7),minimal effective concentration (Pseudomonas aeruginosa) [µg/mL],minimal effective concentration (Candida parapsilosis) [µg/mL],minimal effective concentration (Staphylococcus aureus) [µg/mL],minimal effective concentration (Escherichia coli) [µg/mL],cytotoxicity (HEp-2 cells [2]),IC50 at 48 h [3] [µg/mL],MBEC (biofilm formation) [mg/mL],Aexp [6],"effect on G2/M phase (HEp-2 cells [7]; HEp-2, starting from 50 µg/mL)",NOS2 expression (NOS2),"effect on G2/M phase (HEp-2 cells [7]; HEp-2, 100 µg/mL)",NOX4 activation (expression) (NOX4)
"O=C(/C=C/c1ccc2cccccc1-2)c1ccc2cccccc1-2 [Compound 6, (E)-1,3-Di(azulen-1-yl)prop-2-en-1-one]",156,625,625,625,,,,,625,156,625,625,low toxicity,78.6,0.156 to 0.625,0.401,,,,
